From US4243683A, “Tertiary alcohols” (May & Baker Limited, priority 1977, dated 1981)
Several values for one entry are separate records, joined by “and”; a condition that tells them apart may be missing. Equal entries are not always repeated. Where two headings read alike, the source gives them in different places.

Key:
[1] = test system: uterine contraction in rats; assay: Stimulation of uterine contraction in rats compared with PGE1; format: in vivo, rat; settings: for Activity (compared with PGE1): intravenous, ratio to PGE1
Method: Pregnant anaesthetised rats were treated with the compounds of the invention by the intravenous or intravaginal route and the activity of each compound in stimulating uterine contraction was compared with that of a standard compound, the expensive prostaglandin E1 (PGE1), and expressed as a ratio.

female dog = settings: in vivo, po, 1 mg/kg
Method: (§1) In tests, four female rats and one female dog were each dosed orally with compound A at a rate of 1.0 mg/kg animal body weight. Before administration to the animals the compound was dissolved in a minimum quantity of a 1% w/w solution of Tween 80 emulsifier ("Tween" is a registered Trade Mark) in ethanol, and the resulting solution was diluted with distilled water to a concentration of 0.02% w/w.

female rats = settings: rat, in vivo, po, 1 mg/kg
Method: as §1

hamsters = assay: Antifertility in hamsters (termination of pregnancy, subcutaneous); format: in vivo, hamster; settings: Mesocricetus auratus, sc
Method: On the 4th day of pregnancy, hamsters were each injected subcutaneously with an aqueous solution of a compound of formula I (prepared by dissolving the compound in a minimum volume of ethanol and diluting to the appropriate volume with 0.9% w/v saline). On the 7th day of pregnancy the hamsters were killed and their uteri were examined.
Alternatively, the hamsters were dosed on 3 consecutive days (the 3rd, 4th and 5th days of pregnancy) and killed on the 12th day of pregnancy.
The dose required for termination of pregnancy in 50% of the hamsters (ED50) was calculated mathematically.

[2] = test system: Lucilia sericata prepupae; assay: Lucilia pupae, topical treatment of prepupae; format: in vivo
Method: Lucilia sericata prepupae (taken from a batch of the insects of which approximately 50% were pupated) in groups of 10 were each treated topically with 1 μl of a solution of a test compound in acetone. Controls were treated with acetone alone. The insects were stored in the dark at 30° C. for 8 days, and then the number of insects which had hatched as normal adult flies, and any other effects, were observed.

[3] = test system: houseflies (Musca domestica L.); assay: Houseflies, injection in dorsal thorax, mortality and egg hatch; format: in vivo; settings: for % egg hatch: 48 hours; for % mortality: 24 hours, 1440 min
Method: Adult houseflies (Musca domestica L.) of mixed sex were injected in the dorsal thorax with 1.0 μl of a solution of a test compound in a mixture of acetone and physiological saline (1:1 v/v). Anaesthesia with carbon dioxide was used, and subsequent holding was at 25° C. A source of honey-water was provided. Fly mortality and oviposition were recorded after 24 hours and egg hatching after 48 hours. Similar, control, experiments were carried out using a mixture of acetone and physiological saline alone.

[4] = test system: ticks (Ornithodoros moubata Murray); assay: Ticks, first instar, fed on blood containing test compound; format: in vivo; settings: 5.0 μg per 0.3 ml blood, 14 days at 30° C.
Method: First instar ticks (Ornithodoros moubata Murray) were allowed to engorge through a stretched artificial membrane (Parafilm M) on blood at 37° C. and containing a test compound added in a suitable solvent at a rate of 5.0 μg per 0.3 ml blood. Mortality and moulting were observed after 14 days holding at 30° C.

[5] = test system: mosquito larvae (Aedes aegypti L.); assay: Mosquito larvae in water containing test compound; format: in vivo; settings: 25° C.
Method: Mosquito larvae (Aedes aegypti L.), at the late third or early fourth instar stage, were introduced into water containing a small concentration of a test compound, at 25° C. The water also contained 0.4% v/v acetone which had been employed as the vehicle for the introduction of the test compound. The larvae were fed with dried powdered bovine liver after 2 hours. After 24 hours at 25° C. a mortality count was made, and subsequent metamorphosis and emergence as adults were observed after seven days at 25° C., and compared with controls.

[6] = 288 h, dosed 3rd, 4th and 5th days of pregnancy, examined day 12, read-out: ED50 (dose required for termination of pregnancy in 50% of the hamsters)
[7] = 168 h, dosed 4th day of pregnancy, examined day 7, read-out: ED50 (dose required for termination of pregnancy in 50% of the hamsters)
[8] = Musca domestica, 24 h, 0.5 μg/fly
[9] = Musca domestica, 24 h, 0.25 μg/fly
[10] = test 1, 1.0 μg/prepupa, 8 days at 30° C., control 10

SMILES | Activity (compared with PGE1) [1] | % egg hatch ([3]; 0.5 μg/fly) | mortality at 0.5 µg/fly [3, 8] | % mortality [4] | % moulting normally [4] | also measured
C[C@@H](C/C=C/C(=O)COc1ccccc1)CCCC(C)(C)O [A, (R)-2-hydroxy-2,6-dimethyl-11-phenoxyundec-8-trans-en-10-one] | 3.7 |  |  |  |  | times as active as PGE1 ([1]; pervaginal): over 100 times; weight loss (female dog): no weight loss; weight loss (female rats): no weight loss; ED50 (hamsters; [6]): ~2 mg/kg; Number hatched (out of 10) ([2]; test 3, 1.0 μg/prepupa, control 9): 2 out of 10
C[C@@H](C/C=C/C(=O)COc1ccccc1Cl)CCCC(C)(C)O [B, (R)-11-(2-chlorophenoxy)-2-hydroxy-2,6-dimethylundec-8-trans-en-10-one] | 1.2 |  |  |  |  | 
C[C@@H](C/C=C/C(=O)COc1ccc(Cl)cc1)CCCC(C)(C)O [C, (R)-11-(4-chlorophenoxy)-2-hydroxy-2,6-dimethylundec-8-trans-en-10-one] | 0.32 |  |  |  |  | 
CCCCC(C)(C)C(O)/C=C/C[C@H](C)CCCC(C)(C)O (stereo partly drawn) [Compound T, (6R,10RS)-2,6,11,11-tetramethylpentadec-8-trans-ene-2,10-diol] |  |  |  |  |  | ED50 (hamsters; [7]): 2 mg/kg
C[C@@H](C/C=C/C(=O)CCCc1ccccc1)CCCC(C)(C)O [F, (R)-2-hydroxy-2,6-dimethyl-13-phenyltridec-8-trans-en-10-one] | 0.91 |  |  |  |  | 
C[C@@H](C/C=C/C(=O)CCc1ccccc1)CCCC(C)(C)O [G, (R)-2-hydroxy-2,6-dimethyl-12-phenyldodec-8-trans-en-10-one] | 0.67 | no eggs | 60% | 0% | 0% | % egg hatch ([3]; 0.1 μg/fly): 100%; mortality at 0.1 µg/fly ([3]; Musca domestica, 24 h, 0.1 μg/fly): 60%; ED50 (hamsters; [7]): 5 mg/kg; ED50 (hamsters; [6]): 4 mg/kg
C[C@@H](C/C=C/C(=O)Cc1ccccc1)CCCC(C)(C)O [I, (R)-2-hydroxy-2,6-dimethyl-11-phenylundec-8-trans-en-10-one] | 0.09 |  |  |  |  | 
CCCCCC(=O)/C=C/C[C@H](C)CCCC(C)(C)O [J, (R)-2-hydroxy-2,6-dimethylpentadec-8-trans-en-10-one] | 0.02 |  |  |  |  | 
CCCCC(C)(C)C(=O)/C=C/C[C@H](C)CCCC(C)(C)O [K, (R)-2-hydroxy-2,6,11,11-tetramethylpentadec-8-trans-en-10-one] | 0.57 |  |  |  |  | ED50 (hamsters; [6]): < 0.5 mg/kg
C[C@@H](C/C=C/C(=O)CCc1ccc(Cl)cc1)CCCC(C)(C)O [L, (R)-12-(4-chlorophenyl)-2-hydroxy-2,6-dimethyldodec-8-trans-en-10-one] |  | no eggs | 80% | 0% | 0% | 
C[C@@H](C/C=C/C(=O)CCc1cccc(Cl)c1)CCCC(C)(C)O [M, (R)-12-(3-chlorophenyl)-2-hydroxy-2,6-dimethyldodec-8-trans-en-10-one] |  | 0% |  | 0% | 0% | % egg hatch ([3]; 0.25 μg/fly): 100%; % mortality ([3]; 0.5 μg/fly): 80% and 40%; mortality at 0.25 µg/fly [3, 9]: 30%
C[C@@H](C/C=C/C(=O)CCc1ccccc1Cl)CCCC(C)(C)O [N, (R)-12-(2-chlorophenyl)-2-hydroxy-2,6-dimethyldodec-8-trans-en-10-one] |  | 100% | 50% | 0% | 0% | % egg hatch ([3]; 0.25 μg/fly): 100%; % mortality ([3]; 0.5 μg/fly): 60%; mortality at 0.25 µg/fly [3, 9]: 40%
C[C@@H](C/C=C/C(=O)COc1cccc(Cl)c1)CCCC(C)(C)O [O, (R)-11-(3-chlorophenoxy)-2-hydroxy-2,6-dimethylundec-8-trans-en-10-one] | 0.91 |  |  |  |  | 
C[C@@H](C/C=C/C(O)COc1ccccc1)CCCC(C)(C)O (stereo partly drawn) [P, (6R,10RS)-2,6-dimethyl-11-phenoxyundec-8-trans-ene-2,10-diol] | 0.14 | no eggs | 50% | 0% | 0% | Number hatched (out of 10) [2, 10]: 1 out of 10
CCCCCC(O)/C=C/C[C@H](C)CCCC(C)(C)O (stereo partly drawn) [Q, (6R,10RS)-2,6-dimethylpentadec-8-trans-ene-2,10-diol] | 0.05 | no eggs | 70% | 0% | 0% | ED50 (hamsters; [6]): 2 mg/kg; Number hatched (out of 10) [2, 10]: 0 out of 10; Number hatched (out of 10) ([2]; test 2, 0.2 μg/prepupa, control 7): 6 out of 10; Number hatched (out of 10) ([2]; test 2, 0.4 μg/prepupa, control 7): 5 out of 10; Number hatched (out of 10) ([2]; test 2, 0.6 μg/prepupa, control 7): 1 out of 10; Number hatched (out of 10) ([2]; test 2, 0.8 μg/prepupa, control 7): 0 out of 10; Number hatched (out of 10) ([2]; test 2, 1.0 μg/prepupa, 8 days at 30° C., control 7): 2 out of 10
C[C@@H](C/C=C/C(O)CCc1ccccc1)CCCC(C)(C)O (stereo partly drawn) [R, (6R,10RS)-2,6-dimethyl-12-phenyldodec-8-trans-ene-2,10-diol] | 0.14 |  |  | 0% | 0% | % egg hatch ([3]; 0.25 μg/fly): 100%; mortality at 0.25 µg/fly [3, 9]: 40%; ED50 (hamsters; [6]): 0.5 mg/kg; larvae killed within 24 hours ([5]; 0.08 parts per million w/v): all; mortality at 0.04 µg/mL ([5]; Aedes aegypti, 24 h, 0.04 parts per million, read-out: larvae killed within 24 hours): ~50%
C[C@@H](C/C=C/C(O)CCCc1ccccc1)CCCC(C)(C)O (stereo partly drawn) [S, (6R,10RS)-2,6-dimethyl-13-phenyltridec-8-trans-ene-2,10-diol] |  |  | 30% | 29% | 17% | % egg hatch ([3]; 0.25 μg/fly): 100%; % mortality ([3]; 0.5 μg/fly): 40%; mortality at 0.25 µg/fly [3, 9]: 20%
